According to patent publication US20240262832A1, “SMALL MOLECULE MODULATORS OF GLUCOCEREBROSIDASE ACTIVITY AND USES THEREOF” (Vanqua Bio, Inc., priority 2021, published 2024):

These molecules were tested against T1, GCase (Homo sapiens, UniProt P04062) (assay: activation of GCase in a live cell PFB assay in HELA cells).
T1 construct: endogenous in cells; host or cells: HeLa cells
T1 sequence (P04062 40-536): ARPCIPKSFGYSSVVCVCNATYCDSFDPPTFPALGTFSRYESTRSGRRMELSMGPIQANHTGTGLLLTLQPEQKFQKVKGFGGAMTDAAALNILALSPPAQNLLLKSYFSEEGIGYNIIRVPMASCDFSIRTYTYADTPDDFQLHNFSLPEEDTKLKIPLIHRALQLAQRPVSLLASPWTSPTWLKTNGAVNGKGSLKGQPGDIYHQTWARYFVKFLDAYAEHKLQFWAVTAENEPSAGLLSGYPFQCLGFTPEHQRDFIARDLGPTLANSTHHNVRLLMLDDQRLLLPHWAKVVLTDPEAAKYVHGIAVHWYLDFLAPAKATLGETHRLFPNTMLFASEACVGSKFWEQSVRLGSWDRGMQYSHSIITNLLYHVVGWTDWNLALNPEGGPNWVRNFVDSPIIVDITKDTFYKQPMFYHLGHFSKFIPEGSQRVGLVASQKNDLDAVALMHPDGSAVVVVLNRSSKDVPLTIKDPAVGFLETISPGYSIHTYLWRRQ
Format: cell-based

Row | EC50 [µM] | SMILES
1 | 10 to 50 | FC(F)Cn1ncc2ncc(N3C[C@@H]4[C@@H](COc5cncc(C(F)(F)F)c5)[C@@H]4C3)nc21 [Compound 62, (1R,5S,6S)-3-[1-(2,2-difluoroethyl)-1H-pyrazolo[3,4-b]pyrazin-6-yl]-6-({[5-(trifluoromethyl)pyridin-3-yl]oxy}methyl)-3-azabicyclo[3.1.0]hexane]
2 | < 10 | CCn1c(=O)n(CC)c2nc(N3C[C@@H](C)C[C@@H](COc4cccnc4C(F)(F)F)C3)cnc21 [Compound 288a, 1,3-Diethyl-5-((3S,5R)-3-methyl-5-(((2-(trifluoromethyl)pyridin-3-yl)oxy)methyl)piperidin-1-yl)-1,3-dihydro-2H-imidazo[4,5-b]pyrazin-2-one]
3 | 10 to 50 | O=C(c1cnn(-c2ccccc2)n1)N1CCC(Oc2ccccc2)CC1 [Compound 410, 4-Phenoxy-1-(2-phenyl-2H-1,2,3-triazole-4-carbonyl)piperidine]
4 | 50 to 100 | O=C(c1ccc2cc[nH]c2c1)N1CCC(Oc2cc(C(F)(F)F)ccn2)CC1 [Compound 322, (1H-Indol-6-yl)(4-((4-(trifluoromethyl)pyridin-2-yl)oxy)piperidin-1-yl)methanone]
5 | > 100 | COc1ccc(OCC2CCN(C(=O)NCCc3nccs3)CC2)cc1 [Compound 480]
6 | 10 to 50 | FC(F)Cn1ncc2ncc(N3C[C@@H]4[C@@H](COc5cc(C(F)(F)F)ccn5)[C@@H]4C3)nc21 [Compound 90, (1R,5S,6S)-3-[1-(2,2-difluoroethyl)-1H-pyrazolo[3,4-b]pyrazin-6-yl]-6-({[4-(trifluoromethyl)pyridin-2-yl]oxy}methyl)-3-azabicyclo[3.1.0]hexane]
7 | 10 to 50 | COc1ccc(C(F)(F)C(=O)N2CCCC(COc3ccccc3)C2)cc1 (stereo not shown) [Compound 152]
8 | 50 to 100 | CC(C)c1cc(C(=O)N2C[C@@H]3[C@@H](COc4cccnc4C(F)(F)F)[C@@H]3C2)[nH]n1 [Compound 110, (1R,5S,6R)-3-[3-(Propan-2-yl)-1H-pyrazole-5-carbonyl]-6-({[2-(trifluoromethyl)pyridin-3-yl]oxy}methyl)-3-azabicyclo[3.1.0]hexane]
9 | > 100 | Cn1c(-c2ccccc2)nc2nc(C(=O)N3C[C@@H]4[C@@H](COc5cccnc5C(F)(F)F)[C@@H]4C3)cnc21 [Compound 105, (1-methyl-2-phenyl-1H-imidazo[4,5-b]pyrazin-5-yl)((1R,5S,6r)-6-(((2-(trifluoromethyl)pyridin-3-yl)oxy)methyl)-3-azabicyclo[3.1.0]hexan-3-yl)methanone]
10 | 10 to 50 | Cc1ccccc1OCC1CCCN(C(=O)c2cnn3c(-c4ccccc4)ccc(Cl)c23)C1 (stereo not shown) [Compound 25, (4-Chloro-7-phenylpyrazolo[1,5-a]pyridin-3-yl)(3-((o-tolyloxy)methyl)piperidin-1-yl)methanone]
11 | 10 to 50 | O=C(Cc1csc(-c2ccccc2)n1)N1CCC(Oc2ncccc2C(F)(F)F)CC1 [Compound 401, 2-(2-Phenyl-1,3-thiazol-4-yl)-1-(4-{[3-(trifluoromethyl)pyridin-2-yl]oxy}piperidin-1-yl)ethan-1-one]
12 | 10 to 50 | FC(F)(F)Cn1ncc2ncc(N3C[C@@H]4[C@@H](COc5cccnc5C(F)(F)F)[C@@H]4C3)nc21 [Compound 101, (1R,5S,6S)-3-[1-(2,2,2-Trifluoroethyl)-1H-pyrazolo[3,4-b]pyrazin-6-yl]-6-({[2-(trifluoromethyl)pyridin-3-yl]oxy}methyl)-3-azabicyclo[3.1.0]hexane]
13 | > 100 | O=C(c1ncc(Cl)s1)N1CCCC(COc2ccccc2)C1 (stereo not shown) [Compound 137]
14 | 10 to 50 | CCc1nc2ccccc2n1CC(=O)N1CCCC(COc2ccccc2)C1 (stereo not shown) [Compound 140]
15 | 10 to 50 | Cn1c(-c2ccc(F)cc2)cc2ncc(C(=O)N3CCCC(COc4cccnc4C(F)(F)F)C3)nc21 (stereo not shown) [Compound 58, (6-(4-fluorophenyl)-5-methyl-5H-pyrrolo[2,3-b]pyrazin-3-yl)(3-(((2-(trifluoromethyl)pyridin-3-yl)oxy)methyl)piperidin-1-yl)methanone]
16 | 10 to 50 | COc1ccc(OCC2CCN(c3nc(C)ncc3Cl)CC2)cc1 [Compound 421]
17 | > 100 | COc1ccc(OCC2CCN(Cc3ccncc3C)CC2)cc1 [Compound 445]
18 | > 100 | O=C(c1ccc2cc[nH]c2c1)N1CC2CC2(COc2cccnc2C(F)(F)F)C1 (stereo not shown) [Compound 261, 6-[1-({[2-(Trifluoromethyl)pyridin-3-yl]oxy}methyl)-3-azabicyclo[3.1.0]hexane-3-carbonyl]-1H-indole]
19 | 10 to 50 | O=C(N1CCCC(COc2ccccc2)C1)C12CC3CC(CC(C3)C1)C2 (stereo not shown) [Compound 204]
20 | 10 to 50 | CC(CC1CCCN(c2cnc3cnn(CC(F)F)c3n2)C1)c1ccccc1C(F)(F)F (stereo not shown) [Compound 66, 1-(2,2-Difluoroethyl)-6-(3-(2-(2-(trifluoromethyl)phenyl)propyl)piperidin-1-yl)-1H-pyrazolo[3,4-b]pyrazine]

Row | EC50 [µM] | SMILES
21 | < 10 | CC1CC(COc2cccnc2C(F)(F)F)CN(c2cnc3cnn(CC(F)(F)F)c3n2)C1 (stereo not shown) [Compound 127, 6-(3-Methyl-5-(((2-(trifluoromethyl)pyridin-3-yl)oxy)methyl)piperidin-1-yl)-1-(2,2,2-trifluoroethyl)-1H-pyrazolo[3,4-b]pyrazine]
22 | > 100 | COc1ccc(OCC2CCN(CCCn3ccnc3C)CC2)cc1 [Compound 454]
23 | > 100 | O=C(c1cnc(-c2nncs2)cn1)N1C[C@@H]2[C@@H](COc3cccc(C(F)(F)F)n3)[C@@H]2C1 [Compound 247, (1R,5S,6S)-3-[5-(1,3,4-Thiadiazol-2-yl)pyrazine-2-carbonyl]-6-({[6-(trifluoromethyl)pyridin-2-yl]oxy}methyl)-3-azabicyclo[3.1.0]hexane]
24 | 10 to 50 | O=C(C1C[C@@H]2C[C@@H](C1)CC(F)(F)C2)N1CCCC(COc2ccccc2)C1 (stereo partly shown) [Compound 151]
25 | 10 to 50 | CCCCC1(C(=O)N2CCCC(COc3ccccc3)C2)CCC1 (stereo not shown) [Compound 177]
26 | 10 to 50 | Fc1cc(F)cc(OC[C@@H]2[C@H]3CN(c4cnc5cnn(C6COC6)c5n4)C[C@@H]23)c1 [Compound 124]
27 | > 100 | Cn1c(-c2ccc(F)cc2)nc2nc(C(=O)N3C[C@@H]4[C@@H](COc5cccnc5C(F)(F)F)[C@@H]4C3)cnc21 [Compound 223]
28 | 10 to 50 | O=C(c1ccc2cc[nH]c2c1)N1CCC(Oc2cnccc2C(F)(F)F)CC1 [Compound 310, (1H-Indol-6-yl)(4-((4-(trifluoromethyl)pyridin-3-yl)oxy)piperidin-1-yl)methanone]
29 | 10 to 50 | COc1cc(C(=O)N2CCCC(COc3ccccc3)C2)c(Cl)cc1Cl (stereo not shown) [Compound 155]
30 | 10 to 50 | FC(F)Cn1ncc2ncc(N3C[C@@H]4[C@@H](COc5ccnc(C(F)(F)F)c5)[C@@H]4C3)nc21 [Compound 92, (1R,5S,6S)-3-[1-(2,2-difluoroethyl)-1H-pyrazolo[3,4-b]pyrazin-6-yl]-6-({[2-(trifluoromethyl)pyridin-4-yl]oxy}methyl)-3-azabicyclo[3.1.0]hexane]
31 | 10 to 50 | Cn1c(-c2ccccc2)c(C(=O)N2CCCC(COc3ccccc3OC(F)(F)F)C2)c2nccnc21 (stereo not shown) [Compound 236, (5-Methyl-6-phenyl-5H-pyrrolo[2,3-b]pyrazin-7-yl)(3-((2-(trifluoromethoxy)phenoxy)methyl)piperidin-1-yl)methanone]
32 | 10 to 50 | FC(F)Cn1ncc2ncc(N3C[C@@H]4[C@@H](COc5cnccc5C(F)(F)F)[C@@H]4C3)nc21 [Compound 91, (1R,5S,6S)-3-[1-(2,2-difluoroethyl)-1H-pyrazolo[3,4-b]pyrazin-6-yl]-6-({[4-(trifluoromethyl)pyridin-3-yl]oxy}methyl)-3-azabicyclo[3.1.0]hexane]
33 | 10 to 50 | COc1ccc(OCC2CCN(Cc3ncc[nH]3)CC2)cc1 [Compound 450]
34 | < 10 | CC1CC(COc2cccnc2C(F)(F)F)CN(c2cncc(-c3nncs3)n2)C1 (single isomer, unassigned) [Compound 262b]
35 | < 10 | FC(F)Cn1ncc2ncc(N3CCC(COc4ccnc(C(F)(F)F)c4)CC3)nc21 [Compound 315, 1-(2,2-Difluoroethyl)-6-(4-(((2-(trifluoromethyl)pyridin-4-yl)oxy)methyl)piperidin-1-yl)-1H-pyrazolo[3,4-b]pyrazine]
36 | < 10 | CC(=O)N1CCC(n2ncc3ncc(N4CCCC(COc5ccccc5C(F)(F)F)C4)nc32)CC1 (stereo not shown) [Compound 111, 1-(4-(6-(3-((2-(trifluoromethyl)phenoxy)methyl)piperidin-1-yl)-1H-pyrazolo[3,4-b]pyrazin-1-yl)piperidin-1-yl)ethan-1-one]
37 | 10 to 50 | COc1ccc(OCC2CCN(c3cncc(C(=O)N4CCCC4)n3)CC2)cc1 [Compound 437]
38 | < 10 | CC1CCN(c2cnc3cnn(CC(F)F)c3n2)CC1COc1cccnc1C(F)(F)F (stereo not shown) [Compound 48, 1-(2,2-Difluoroethyl)-6-(4-methyl-3-(((2-(trifluoromethyl)pyridin-3-yl)oxy)methyl)piperidin-1-yl)-1H-pyrazolo[3,4-b]pyrazine]
39 | 10 to 50 | CC(C)(c1ccccc1)c1nnc(C(=O)N2CCCC(COc3ccccc3)C2)o1 (stereo not shown) [Compound 24, (3-(Phenoxymethyl)piperidin-1-yl)(5-(2-phenylpropan-2-yl)-1,3,4-oxadiazol-2-yl)methanone]
40 | 10 to 50 | CC(=O)N1CCC(c2cc3ncc(N4CCCC(COc5ccccc5C)C4)nc3n2C)CC1 (stereo not shown) [Compound 86, 1-(4-(5-Methyl-3-(3-((o-tolyloxy)methyl)piperidin-1-yl)-5H-pyrrolo[2,3-b]pyrazin-6-yl)piperidin-1-yl)ethan-1-one]
